The numbers were not newly measured in PubChem BioAssay AID1259409 (Chemical Carcinogenesis Research Information System (CCRIS), 2018), which cites them from elsewhere.

Each structure is given as a SMILES string.

The data set deals with rodent chemically induced tumor inhibition, incidence and multiplicity. The experiment in a line: CCRIS tumor inhibitor studies. Conditions: Carcinogen: 7,12-DIMETHYLBENZ[A]ANTHRACENE [57-97-6]; Dose [Inhibitor]: 85 NMOL/G IN 0.1 ML ACETONE 2X/WK FOR 20 WK 1 HR PRIOR TO EACH PROMOTER DOSE BEGINNING 1 WK POST LAST CARCINOGEN DOSE (S; Route [Inhibitor]: DERMAL; Species: MOUSE; Strain/Sex: ICR/FEMALE; Target Tissue: Type of Lesion: SKIN: PAPILLOMA; Dose [Carcinogen]: 390 NMOL IN 0.1 ML ACETONE ONCE (STUDY DURATION: 21 WK); Promoter: 12-O-TETRADECANOYL-13-ACETATE [16561-29-8].

`CCCC(=O)C1=C(O)C(Cc2c(O)c(C)c(OC)c(C(=O)CCC)c2O)=C(O)C(C)(C)C1=O`: the “tumour outcome (control, treated, inhibition, significance)” value was 100%, 85%, 15%, not calculated.
